The record followed here is US5578496A, “Detection of autoantibodies associated with the disease myasthenia gravis” (Board of Regents, Baylor College of Medicine, priority 1994, dated 1996).

In assay [1] the test system is antibodies against human ACHR α chain peptides. Description: Binding of anti-peptide antibodies to the peptides on Co-Bind plate. More on the design: species or system mice. The note with it: antisera diluted 1:500 (v/v) with PBS/0.05% casein; corrected for nonspecific binding to casein. As for the experimental part: Anti-peptide antibodies were raised in outbred mice by immunization in the hind footpads of 50 μg of synthetic peptide in 100 μl emulsion prepared from equal volumes of PBS and Freund's complete adjuvant. The immunizations were done on day 1, day 15, day 30 and day 45. Rabbit immune IgG fractions with specificity against human IgG and human IgM and mouse IgG and IgM were obtained from DAKO Co. (DAKO-immunoglobulins a/s, Denmark) and Accurate Chemical Scientific Corp. (Westbury, N.Y.), respectively.
1.0 mg of peptide was dissolved in 5 μl of dimethylformamide and then diluted to 50 μg/ml with 0.15M NaCl in 0.01M sodium phosphate buffer, pH 7.2, containing 0.01% thimerosal (PBS). Aliquots of the peptide solution, were applied to wells of the 96-well Co-Bind plate. The plates were incubated at room temperature overnight with continuous gentle rocking. After washing three times with PBS, the wells were quenched (3 hrs., room temperature) with 0.2 ml of 1.0M glycine-NaOH, pH 7.2. After washing the wells three times with PBS, an aliquot (100 μl) of a 0.1% solution of casein in PBS were added to each well and the plates were incubated at 37° C. for 90 min to block the remaining reactive groups on the wells. The plates were then washed three times with PBS and incubated (37° C., 4 hrs) with 100 μl of plasma or mouse antiserum (1:200 or 1:500 dilution with PBS containing 0.1% casein). For binding to peptide α182-198, the plates were blocked with, and plasma were diluted in, 0.5% (instead of 0.1%) casein in PBS. After washing four times with PBS, the plates were incubated (4° C., overnight) with 100 μl of rabbit anti-human (IgG+IgM) or anti-mouse (IgG+IgM) (2.5 μg/ml) in PBS containing 0.1% casein. The plates were washed four times with PBS and incubated (3 hrs., room temperature) with ^125 I-labeled protein A (2×10^5 cpm) in 100 μl of PBS-0.1% casein. After washing five times with PBS, bound radioactivity was removed from the wells, by the addition of 100 μl of 5% SDS in 0.2N NaOH. The plates were allowed to stand for 20 min at room temperature and the solutions were then transferred quantitatively to small test tubes for counting. This procedure was repeated three times, and the solutions in each case were added to the respective tubes. The samples were counted on a Beckman 4000 gamma counter. The radioactivity bound by three unrelated proteins (casein, cytochrome C and bovine serum albumin) and a nonsense peptide (ESSGTGIESSGTGI) (Atassi et al. 1987) were used as controls to correct for nonspecific binding. It should be noted that in other experiments, in which the plates were blocked and all dilutions were made with PBS containing human adult hemoglobin or bovine serum albumin, the non-specific binding was considerably higher than when casein was used.
To confirm that the synthetic human AChR peptides can be coupled to Co-Bind plate, they were used to raise anti-peptide antibodies in mice. The peptides were bound onto the well of Co-Bind plates, followed by reaction with the respective anti-peptide antibody, pre-diluted 1:500 (v/v) with PBS/0.05% casein.

In assay [2] the test system is experimental autoimmune myasthenia gravis (EAMG). Description: Electromyography (repetitive nerve stimulation) for electrophysiological EAMG after immunization with Torpedo AChR. The assay is classed as in vivo, C57/BL6 mice. On the procedure:
Six weeks old C57/BL6 mice were purchased from Charles River Breeding Laboratories (Wilmington, Mass.). Preimmune sera were obtained from the mice for use as controls in subsequent antibody binding assays. […] Then, on day 0, the mice were immunized subcutaneously in one hind footpad and intramuscularly in the same side shoulder with 20 μg of Torpedo AChR in 100 μl emulsion containing equal volumes of complete Freund's adjuvant and PBS. Thirty days later, the mice were immunized with a similar dose of the receptor in the opposite footpad and shoulder. On the 37th day, test bleeds were obtained from the mice for determination of the antibody titers. Electrophysiological studies were performed on the 38th and 39th days. Finally, the mice were sacrificed on the 40th day and lymph node cells were obtained for T cell studies. To document the electrophysiological evidence of EAMG, amplitudes of serial muscle action potentials were measured by electromyography (EMG) during the repetitive stimulation of the nerve in immunized mice, using the Mystro EMG system (TECA Corporation). A pair of wire electrodes were surgically implanted, encircling the sciatic nerve, two days before EMG. The nerve was stimulated through the implanted electrodes by 3 Hz trains of supramaximal electric current with a duration of 200 microseconds. The corresponding muscle action potentials were recorded with an electrode subcutaneously inserted over the gastrocnemius muscle. A reference electrode was placed at the ankle. Ether inhalation was used during the surgical and recording procedures. […] Students' t-test was used to analyze the differences of amplitude changes between the two groups. A typical myasthenic response of a greater than 10% decrement was considered to constitute an electrophysiological evidence of EAMG. The frequency of electrophysiological EAMG was calculated in each group and analyzed by chi-square test.

For the next assay, the system named is peptide α125-148. The assay can be described thus: Radioimmunoassay of anti-AChR antisera from pretreated mice: antibody binding to peptide α125-148. The assay is classed as in vivo, C57/BL6 mice. On the procedure: Six weeks old C57/BL6 mice were purchased from Charles River Breeding Laboratories (Wilmington, Mass.). Preimmune sera were obtained from the mice for use as controls in subsequent antibody binding assays. After 2-weeks rest, the mice were divided into three groups which received, at eleven, seven and three days before immunization with AChR, an intraperitoneal injection (5 μg in 25 μl of PBS [0.15M NaCl in 0.01M sodium phosphate buffer, pH 7.2]) of either the mPEG-(α125-148) conjugate (Group 1), mPEG-nonsense peptide conjugate (Group 2) or unaltered free peptide α125-148 (Group 3) (FIG. 5). Then, on day 0, the mice were immunized subcutaneously in one hind footpad and intramuscularly in the same side shoulder with 20 μg of Torpedo AChR in 100 μl emulsion containing equal volumes of complete Freund's adjuvant and PBS. Thirty days later, the mice were immunized with a similar dose of the receptor in the opposite footpad and shoulder. On the 37th day, test bleeds were obtained from the mice for determination of the antibody titers. Electrophysiological studies were performed on the 38th and 39th days. Finally, the mice were sacrificed on the 40th day and lymph node cells were obtained for T cell studies.
One mg of the synthetic peptide was dissolved in 50 μl dimethylformamide and then diluted with PBS to 25 μg/ml. A solution of Torpedo AChR in PBS was prepared to contain 2.5 μg/ml. Aliquots (50 μl/well) of the peptide or AChR solutions were added to a 96-well microtiter plate (Falcon Micro Test III flexible assay plate, Becton Dickinson, Oxcard, Calif.) and the plates were incubated at room temperature overnight. After washing 3 times with PBS, the plates were blocked with 0.25% bovine serum albumin (BSA [bovine serum albumin]) in PBS (50 μl/well) at 37° C. for 90 minutes. The plates were washed again 5 times with PBS and to each well was added 50 μl of the serum from AChR-immunized mice, pre-diluted with PBS containing 0.10% BSA, and the plates were covered and allowed to stand at room temperature overnight. After 5 washes with PBS, 50 μl of rabbit IgG antibodies (2.5 μg/ml) against mouse IgG and IgM (Accurate Chemical Scientific Corporation, Westbury, N.Y.) was added to each well and the plates were incubated at 37° C. for 3 hours. The plates were then washed 5 times with PBS and ^125 I-labeled protein A (2×10^5cpm in 50 μl of PBS-0.1% BSA) was added to each well. The plates were incubated for 3 hours at room temperature, after which they were washed and the wells were cut out and counted for bound radioactivity. Pre-immune serum samples, obtained from the mice prior to any experimental treatments, were used as controls to correct for non-specific binding.

Setting [3] is: 5 μg i.p. at 11, 7 and 3 days before immunization with Torpedo AChR, EMG on days 38-39.

Where a SMILES comes first, the peptide text is derived from it. Bridges are numbered along the chain shown (N, C = ends).

For the compound “α23-38: synthetic peptide, residues α23-38 of human AChR α-chain (EDHRQVVEVTVGLQLI)”, in assay [1], the “Antibody Binding to immunizing Peptide (CPM)” value (“Antibody Binding … (CPM)” below) was 71893 CPM.
For the compound “α89-104: synthetic peptide, residues α89-104 of human AChR α-chain (DLVLYNNADGDFAIVK)”, the “Antibody Binding … (CPM)” value in assay [1] was 29199 CPM.
For the compound `CC[N+](C)(C)c1cccc(O)c1` [edrophonium chloride, reference compound], the “decremental amplitude after edrophonium” value in assay [2] (EAMG-positive mouse with -33% decrement, 3 minutes after i.p. injection of 250 μg) is -13%. Further, the “reversibility of typical myasthenic decremental response” value in assay [2] (i.p. injection of 250 μg) was “reversible”.
In the case of `CC[C@H](C)[C@H](NC(=O)CNC(=O)[C@H](CC(C)C)NC(=O)[C@H](CCCCN)NC(=O)[C@H](CCSC)NC(=O)[C@@H](NC(=O)[C@@H]1CSSC[C@H](NC(=O)[C@H](Cc2ccc(O)cc2)NC(=O)[C@H](CO)NC(=O)[C@@H](N)CCCCN)C(=O)N[C@@H](CCC(=O)O)C(=O)N[C@@H]([C@@H](C)CC)C(=O)N[C@@H]([C@@H](C)CC)C(=O)N[C@@H](C(C)C)C(=O)N[C@@H]([C@@H](C)O)C(=O)N[C@@H](Cc2c[nH]cn2)C(=O)N[C@@H](Cc2ccccc2)C(=O)N2CCC[C@H]2C(=O)N[C@@H](Cc2ccccc2)C(=O)N[C@@H](CC(=O)O)C(=O)N[C@@H](CCC(N)=O)C(=O)N[C@@H](CCC(N)=O)C(=O)N[C@@H](CC(N)=O)C(=O)N1)[C@@H](C)O)C(=O)O` [α125-148] (H-KSYCEIIVTHFPFDQQNCTMKLGI-OH; disulfide 4-18), the “antibody binding to peptide α125-148, mean net cpm ± standard deviation” value in the assay on peptide α125-148 (anti-AChR antisera of individual mice, day 37 bleeds) is given as 3626+2214 cpm. In addition, in the assay with peptide α125-148 (pooled serum of each group, various dilutions), the “antibody binding to peptide α125-148, pooled antisera in serial dilutions” value was “consistently greater than the other two controls”. Further, the “antibodies bound to peptide α125-148 in anti-AChR antisera” value in the assay with peptide α125-148 (pretreatment prior to immunization with Torpedo AChR) is recorded as “no decrease”. For the same compound, in assay [2] (setting [3]), the “mean amplitude change of muscle action potentials” value is listed as -15.9% and the “mice showing a decremental response greater than 10%” value is on record as 56%.
For the compound “α45-60: synthetic peptide, residues α45-60 of human AChR α-chain (EVNQIVTTNVRLKQQW)”, the “Antibody Binding … (CPM)” value in assay [1] came to 82404 CPM.
On the same count and under the same terms, as for “α67-82: synthetic peptide, residues α67-82 of human AChR α-chain (WNPDDYGGVKKIHIPS)”, the figure is 22884 CPM; as for “α158-174: synthetic peptide, residues α158-174 of human AChR α-chain (INPESDQPDLSNFMESG)”, 14799 CPM.
Same read-out and setting: as for “α146-162: synthetic peptide, residues α146-162 of human AChR α-chain (LGTWTYDGSVVAINPES)”, the figure is 13649 CPM.
On the same count and under the same terms, as for “α134-150: synthetic peptide, residues α134-150 of human AChR α-chain (HFPFDEQNGSMKLGTWT)”, the figure is 52077 CPM; as for “α170-186: synthetic peptide, residues α170-186 of human AChR α-chain (FMESGEWVIKESRGWKH)”, 71323 CPM; as for “α194-210: synthetic peptide, residues α194-210 of human AChR α-chain (PDTPYLDITYHFVMQRL)”, 66804 CPM.
In the case of “α56-71: synthetic peptide, residues α56-71 of human AChR α-chain (LKQQWVDYNLKWNPDD)”, in assay [1], the “Antibody Binding … (CPM)” value was found to be 36038 CPM.
The same measure, in the same setting: as for “α1-16: synthetic peptide, residues α1-16 of human AChR α-chain (SEHETRLVAKLFKDYS)”, the figure is 78940 CPM.
As for “α78-93: synthetic peptide, residues α78-93 of human AChR α-chain (IHIPSEKIWRPDLVLY)”, the “Antibody Binding … (CPM)” value in assay [1] was 4433 CPM.
The same measure, in the same setting: as for “α100-115: synthetic peptide, residues α100-115 of human AChR α-chain (FAIVKFTKVLLQYTGH)”, the figure is 57717 CPM.
Still for that read-out and setting: as for “α34-49: synthetic peptide, residues α34-49 of human AChR α-chain (GLQLIQLINVDEVNQI)”, the figure is 62360 CPM.
